Assay results taken from US20240034785A1, “RXR-ALPHA BINDERS AND RXR-ALPHA/PLK1 MODULATORS” (NUCMITO PHARMACEUTICALS CO. LTD., priority 2020, published 2024).

Assays:
[1] = test system: HepG2 cells; experiment: Western blot analysis of liver cancer HepG2 cells; assay type: cell-based, human; conditions: indicated concentration for 12 hr (FIG. 61)
[2] = test system: HepG2 xenografts; experiment: HepG2 xenografts in nude mice; assay type: in vivo, mouse
Experimental: FIGS. 69 and 70 show the analysis of nude mice injected with HepG2 cells, where the mice were treated with compound A1 (80 mg/kg) once every two days. The tumor volume was monitored and recorded. Tumors excised at day 14 were shown in FIG. 69 and weight in FIG. 70 (±SEM; **p<0.01).
BALB/c nude mice (7-8 weeks old) were injected subcutaneously with 100 μL HepG2 cells (2×10^6). For treatment, mice were administered with compound A1 (80 mg/kg) diluted in corn oil once every two days. Body weights and tumor sizes were measured every 2 days with tumor volumes (V) calculated by the formula of (width)^2×length/2. The mice were sacrificed after 14 days of treatment and tumors were removed for additional assessments. Isolation and culture of mouse primary liver tumor cells
Livers or transplanted tumor from mouse were fixed in 4% neutral buffered formalin phosphate (pH 7.0) for periods not exceeding 24 hr and were subsequently embedded in paraffin. They were sliced into 4-μm sections for H&E (hematoxylin and eosin) staining, immunofluorescence and for immunohistochemistry. To examine hepatocytes, H&E stained-liver sections were analyzed with an image analysis system. For immunostaining, liver sections or tumor sections were incubated with an anti-γ-tubulin (1:200 dilution), anti-pS10-H3 (1:200 dilution), anti-γ-H2AX (1:200 dilution), or cleaved-caspase-3 (1:100 dilution) antibody. Positive cells or areas were counted and measured, respectively, for at least 10 fields.

[3] = test system: primary human hepatocellular carcinoma cells; experiment: Western blot analysis of primary hepatic carcinoma cells from a liver cancer patient; assay type: cell-based; conditions: 10 μM for 48 hr (FIG. 63)
Experimental: Tissue samples were obtained by surgical resection and processed within 2 hr. Chen et al., Oncotarget 2016, 7, 17047-59. Samples were washed with 1×SC-2 solution, minced with fine sterile scissors and scalpel into fragments of ˜1 mm^3. They were then treated with pre-warmed collagenase type IV for 30 min at 37° C. and filtered through a 70 μm cell strainer. The pellet containing the liver cells was resuspended in ice cold SC-2 solution and triple centrifugation at 1,000 g for 10 min at 4° C. was performed in order to separate the purified hepatocyte population (pellet) from non-parenchymal cells (supernatant). The pellet contained the purified hepatocytes. The resolved single-cell suspensions were then re-suspended in a primary cell culture medium (DMEM, 20% FBS, 2 mM glutamine, 1 mM pyruvate, 10 mM HEPES, 100 units/mL penicillin/streptomycin, 0.1 mg/mL gentamicin, and […] fungizone), plated in 6-well plates coated with 5 μg/cm^2 rat tail collagen type I and maintained in culture at 37° C. and 5% CO2.

[4] = test system: primary mouse liver tumor cells; experiment: Western blot analysis of primary mouse liver tumor cells; assay type: cell-based; conditions: 10 μM for 24 hr (FIG. 65)
Experimental: Briefly, a liver from a mouse was removed and washed in 1×PBS. The tumor tissue was resected from the liver and transferred to 5 mL PBS/2% FBS. The tumor tissue was minced with fine sterile scissors into fragments, followed by addition of 5 mL pre-warmed 2 mg/mL collagenase type IV/dispase. After incubated for 30 min at 37° C., the tumor cells were filtered through a 70 μm cell strainer and spined at 1,000 rpm for 5 min at 4° C. The pellet containing the liver tumor cells was then resuspended in 5 mL of 1×RBC lysis buffer and incubated on ice for 5 min. The tumor cells were spined and washed by 1×PBS/2% FBS for 2-3 times. Finally, the tumor cells were resuspended with DMEM (10% FBS, 40 ng/mL EGF, 0.008 ng/mL IGF-II) and plated in culture dishes that were pre-coated with collagen.

[5] = target: T1, m-RXRα (p-RXRα) interaction with PLK1 (Homo sapiens, UniProt P19793); experiment: Co-immunoprecipitation of Myc-RXRα with FLAG-PLK1 in HeLa cells; conditions: 10 μM for 3 hr (FIG. 55)
T1 sequence (P19793 1-462): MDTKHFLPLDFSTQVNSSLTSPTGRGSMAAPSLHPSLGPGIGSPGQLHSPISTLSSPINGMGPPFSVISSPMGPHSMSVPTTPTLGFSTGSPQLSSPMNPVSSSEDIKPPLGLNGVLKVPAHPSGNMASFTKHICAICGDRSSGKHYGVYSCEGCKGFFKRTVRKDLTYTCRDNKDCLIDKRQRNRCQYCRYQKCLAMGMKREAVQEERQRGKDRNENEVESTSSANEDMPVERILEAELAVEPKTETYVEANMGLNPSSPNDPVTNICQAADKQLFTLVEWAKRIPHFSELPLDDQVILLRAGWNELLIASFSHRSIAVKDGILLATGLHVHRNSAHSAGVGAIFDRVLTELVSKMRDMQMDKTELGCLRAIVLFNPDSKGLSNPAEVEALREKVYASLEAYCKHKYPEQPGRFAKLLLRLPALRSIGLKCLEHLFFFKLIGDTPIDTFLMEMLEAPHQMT
Experimental: Briefly, cells were harvested in a lysis buffer (10 mM Tris, pH 7.4, 150 mM NaCl, 0.5% NP40, 5 mM ethylene diamine tetraacetic acid, containing protease inhibitors). Cell lysates were incubated with an antibody (1 μg) at 4° C. for 2 hr. Immunocomplexes were then precipitated with 30 μL of protein G-Sepharose beads. After an extensive washing with the lysis buffer, the beads were boiled in a sodium dodecyl sulfate (SDS) sample loading buffer and assessed by western blotting.
Cell lysates were boiled in an SDS sample loading buffer, resolved by 10% SDS-polyacrylamide gel electrophoresis (SDS-PAGE), and transferred to PVDF membranes. The membranes were blocked with 5% milk in a Tris buffered saline and TWEEN 20 (TBST)(10 mM Tris-HCl, pH 8.0, 150 mM NaCl, 0.05% TWEEN 20) for 1 hr at room temperature. After washing twice with TBST, the membranes were incubated with primary antibodies in TBST for 1 hr and then washed twice, probed with a horseradish peroxide-linked anti-immunoglobulin (1:5,000 dilution) for 1 hr at room temperature. After three washes with TBST, immunoreactive products were visualized using enhanced chemiluminescence reagents and autoradiography.

[6] = test system: cancer cells; experiment: Mitotic progression of cancer cells (FACS analysis); assay type: cell-based; set-up: inhibitory effect on mitotic progression: RXRα dependence and other cancer cell lines (FACS): dose or concentration left out as unconfirmed
Experimental: Cells were harvested by trypsin digestion, washed with PBS, and fixed with ice-cold 70% ethanol overnight at 4° C. The fixed cells were then washed twice in PBS and treated for 10 min at room temperature with 0.5 μg/mL 4-6-diamidino-2-phenylindole (DAPI) in PBS and analyzed on a FACSCAN™ flow cytometer. Flow cytometry data were analyzed using CYTEXPERT.

[7] = test system: HepG2 liver cancer and THLE-2 nontumorous liver cells; experiment: Western blot analysis of HepG2 and THLE-2 cells; assay type: cell-based, human; conditions: 10 μM for 12 hr (FIG. 68)
[8] = test system: B16F10 and 4T1 cells; experiment: Mitotic arrest and chromosome misalignment in B16F10 and 4T1 tumor cells; assay type: cell-based, mouse

COc1ccc(CC(=O)N/N=C/c2c(O)ccc3ccccc23)cc1 [Compound A1, (E)-N′-((2-hydroxynaphthalen-1-yl)methylene)-2-(4-methoxyphenyl)acetohydrazide]
effect in p-RXRα-positive HepG2 liver cancer cells [1]: potent effect
effects of compound A1 in normal liver tissues ([2]; normal liver tissues of HepG2 xenograft mice (FIG. 71)): not observed in normal liver tissues
mitotic arrest and DNA damage response in normal tissues ([2]; normal tissues of kidney, intestine, spleen, and heart): no effect
signs of overt toxicities ([2]; nude mice, 80 mg/kg once every two days, 14 days): without any signs of overt toxicities
growth of HepG2 tumor ([2]; nude mice, subcutaneous HepG2 xenografts, 80 mg/kg in corn oil once every two days, 14 days (FIGS. 69 and 70)): strongly inhibited the growth of HepG2 tumor
mitotic arrest, chromosome aberrations, DNA damage response, and caspase 3 activation in tumor cells ([2]; tumor specimens from HepG2 xenograft (FIG. 71)): induction of mitotic arrest, chromosome aberrations, DNA damage response, and caspase 3 activation in tumor cells
induction of mitotic arrest and apoptosis [3]: observed
G2/M arrest, DNA damage response, and apoptosis ([4]; primary liver cancer cells): induced G2/M arrest, DNA damage response, and apoptosis
induction of mitotic arrest and apoptosis ([4]; primary mouse liver tumor cells): observed
p-RXRα interaction with PLK1 (CoIP) [5]: inhibited
mitotic progression of cancer cells [6]: inhibited mitotic progression of cancer cells
inhibitory effect on mitotic progression: RXRα dependence and other cancer cell lines (FACS) ([6]; indicated cell lines): RXRα dependent and observed in many other cancer cell lines
inducing G2/M arrest, SAC activation, and apoptosis in HepG2 versus THLE-2 cells [7]: differential effects
chromosomal aberrations (chromosome misalignment) ([8]; 10 μM for 2 hr (FIG. 67)): chromosomal aberrations
mitotic arrest ([8]; 10 μM for 6 hr (FIG. 66)): caused mitotic arrest
